From patent publication US11072616B2, “Cyclic peptides targeting alpha-4-beta-7 integrin” (Zealand Pharma A/S, priority 2015, dated 2021)

What follows are compounds tested against T1, integrin α4β7 (Homo sapiens, UniProt P13612+P26010) (assay: Integrin α4β7—MAdCAM-1 competition assay (ELISA)). Settings: ratio a4b1 ELISA IC50 / a4b7 ELISA IC50.
T1 sequence (P13612 34-977 limits assumed): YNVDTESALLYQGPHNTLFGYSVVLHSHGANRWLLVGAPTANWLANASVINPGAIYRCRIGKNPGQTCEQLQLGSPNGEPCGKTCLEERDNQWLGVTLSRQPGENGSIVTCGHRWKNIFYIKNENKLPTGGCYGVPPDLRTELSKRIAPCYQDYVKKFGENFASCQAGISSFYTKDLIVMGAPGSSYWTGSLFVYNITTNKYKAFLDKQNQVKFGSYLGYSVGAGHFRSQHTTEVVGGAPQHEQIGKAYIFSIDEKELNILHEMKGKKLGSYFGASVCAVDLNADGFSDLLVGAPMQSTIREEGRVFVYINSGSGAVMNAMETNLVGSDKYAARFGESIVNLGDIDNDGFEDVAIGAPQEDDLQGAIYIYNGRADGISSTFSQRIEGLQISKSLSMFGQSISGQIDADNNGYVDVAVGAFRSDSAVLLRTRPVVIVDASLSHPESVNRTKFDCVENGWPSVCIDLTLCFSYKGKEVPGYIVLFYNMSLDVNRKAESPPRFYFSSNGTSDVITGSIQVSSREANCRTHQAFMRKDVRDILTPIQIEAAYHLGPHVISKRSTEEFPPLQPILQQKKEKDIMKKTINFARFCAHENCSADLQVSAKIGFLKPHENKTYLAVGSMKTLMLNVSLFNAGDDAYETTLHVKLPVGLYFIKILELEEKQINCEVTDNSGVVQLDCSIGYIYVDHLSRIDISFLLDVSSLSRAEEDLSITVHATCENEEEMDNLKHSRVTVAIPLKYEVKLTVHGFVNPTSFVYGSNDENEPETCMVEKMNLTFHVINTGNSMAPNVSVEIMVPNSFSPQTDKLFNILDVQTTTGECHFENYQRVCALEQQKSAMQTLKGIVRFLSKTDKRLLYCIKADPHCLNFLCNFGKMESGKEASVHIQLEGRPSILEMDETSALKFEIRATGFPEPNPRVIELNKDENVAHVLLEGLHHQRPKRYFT
T1 sequence (P26010 20-723 limits assumed): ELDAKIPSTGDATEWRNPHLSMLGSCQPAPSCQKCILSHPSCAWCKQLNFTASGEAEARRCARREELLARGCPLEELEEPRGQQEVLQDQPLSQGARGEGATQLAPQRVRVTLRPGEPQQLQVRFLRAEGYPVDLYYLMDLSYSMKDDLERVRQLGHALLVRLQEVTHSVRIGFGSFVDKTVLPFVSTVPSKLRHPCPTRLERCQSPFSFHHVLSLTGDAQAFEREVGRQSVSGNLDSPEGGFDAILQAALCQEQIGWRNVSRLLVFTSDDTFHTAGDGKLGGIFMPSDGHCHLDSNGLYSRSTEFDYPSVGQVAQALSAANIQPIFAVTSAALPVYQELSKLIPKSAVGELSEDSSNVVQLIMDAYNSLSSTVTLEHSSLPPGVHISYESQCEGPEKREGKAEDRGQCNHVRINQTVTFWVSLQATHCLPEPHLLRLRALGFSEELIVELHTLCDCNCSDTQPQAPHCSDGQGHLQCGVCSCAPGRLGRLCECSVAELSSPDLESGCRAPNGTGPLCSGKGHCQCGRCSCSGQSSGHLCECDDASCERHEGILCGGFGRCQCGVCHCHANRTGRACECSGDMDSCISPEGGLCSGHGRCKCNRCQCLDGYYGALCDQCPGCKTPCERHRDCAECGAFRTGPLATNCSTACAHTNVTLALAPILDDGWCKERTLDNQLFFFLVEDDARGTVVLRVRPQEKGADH
Type: binding
Procedure: Integrin α4β7—MAdCAM-1 Competition Assay
The plate was incubated at 4° C. overnight. […] The plate was then incubated for 1 hour at room temperature. The plate was washed three times with wash buffer (50 mM Tris, 100 mM NaCl, 1 mM MnCl2, 0.05% Tween). To each well, 50 μl of compound diluted in assay buffer was added by transfer from a compound serial dilution plate. […] The plate was incubated at room temperature with shaking for 2 hours to reach binding equilibrium. Then the plate was washed three times in wash buffer and 100 μl anti-human IgG Fc specific-horseradish peroxidase (HRP) (Abcam, Ab97225) diluted at 1:2000 in assay buffer was added to each well. The plate was incubated at room temperature for 1 hour under agitation. The plates were then washed three times and 100 μl of 1,3′,5,5′-tetramethylbenxidie (TMB) was then added to each well.

**Q.** With `CC(C)C[C@@H]1NC(=O)[C@H]2CCCCN2C(=O)[C@H](Cc2ccccc2I)NC(=O)[C@@H]2CCCN2[C@H](C(=O)NC(C)(C)C)[C@H](C)NC(=O)[C@H]([C@@H](C)O)NC(=O)[C@H](CC(=O)O)NC1=O` [Compound 133] as the compound, how does the “Selectivity ELISA” value read?
**A.** 5.3

**Q.** Which “Selectivity ELISA” value does the source give for `CC(C)C[C@@H]1NC(=O)[C@H](Cc2ccc3ccccc3c2)NC(=O)[C@@H]2CCCN2[C@H](C(=O)NC(C)(C)C)[C@H](C)NC(=O)[C@H]([C@@H](C)O)NC(=O)[C@H](CC(=O)O)NC1=O` [Compound 10] here?
**A.** 1.3

**Q.** `COc1ccc(C[C@@H]2NC(=O)[C@@H]3CCCN3[C@H](C(=O)NC(C)(C)C)[C@H](C)NC(=O)[C@H]([C@@H](C)O)NC(=O)[C@H](CC(=O)O)NC(=O)[C@H](CC(C)C)NC(=O)[C@H]3CCCN3C2=O)cc1OC` [Compound 127] was tested. Which “Selectivity ELISA” value did it give?
**A.** 7.8

**Q.** For `CC(C)C[C@@H]1NC(=O)[C@@H]2C[C@@H](OCc3ccccc3)CN2C(=O)[C@@H]2CCCN2[C@H](C(=O)NC(C)(C)C)[C@H](C)NC(=O)[C@H]([C@@H](C)O)NC(=O)[C@H](CC(=O)O)NC1=O` [Compound 57], which “Selectivity ELISA” value is on record?
**A.** 2.5

**Q.** `CCO[C@H](C)[C@@H]1NC(=O)[C@H](CC(=O)O)NC(=O)[C@H](CC(C)C)NC(=O)[C@H](Cc2ccccc2)NC(=O)[C@@H]2CCCN2[C@H](C(=O)NC(C)(C)C)[C@H](C)NC1=O` [Compound 41] was tested. Which “Selectivity ELISA” value did it give?
**A.** 2.5

**Q.** For `CC(C)C[C@@H]1NC(=O)[C@H]2c3ccccc3CCN2C(=O)[C@@H]2CCCN2[C@H](C(=O)NC(C)(C)C)[C@H](C)NC(=O)[C@H]([C@@H](C)O)NC(=O)[C@H](CC(=O)O)NC1=O` [Compound 98], which “Selectivity ELISA” value is on record?
**A.** 2.7

**Q.** For `CC[C@H](C)[C@@H]1NC(=O)[C@H](CC(=O)O)NC(=O)[C@H](CC(C)C)NC(=O)C[C@H](CCCCN)NC(=O)[C@@H](Cc2ccc(CN)cc2)NC(=O)[C@@H]2CCCN2[C@H](C(=O)NC(C)(C)C)[C@H](C)NC1=O` [Compound 253], which “Selectivity ELISA” value is on record?
**A.** 15.6

**Q.** How did the “Selectivity ELISA” value turn out when `CC(C)C[C@@H]1NC(=O)C[C@H](CCCCN)NC(=O)[C@H](Cc2ccc(I)cc2)NC(=O)[C@@H]2CCCN2[C@H](C(=O)NC(C)(C)C)[C@H](C)NC(=O)[C@H]([C@@H](C)O)NC(=O)[C@H](CC(=O)O)NC1=O` [Compound 260] was run?
**A.** 58.1

**Q.** For `CC(C)C[C@@H]1NC(=O)CNC(=O)[C@H](Cc2ccc(CN)cc2)NC(=O)[C@@H]2CCCN2[C@H](C(=O)NC(C)(C)C)[C@H](C)NC(=O)[C@H]([C@@H](C)O)NC(=O)[C@H](CC(=O)O)NC1=O` [Compound 165], which “Selectivity ELISA” value is on record?
**A.** 22.8

**Q.** For `CC(C)C[C@@H]1NC(=O)[C@@H](CCCCN)NC(=O)[C@H](Cc2cccc3ccccc23)NC(=O)[C@@H]2CCCN2[C@H](C(=O)NC(C)(C)C)[C@H](C)NC(=O)[C@H]([C@@H](C)O)NC(=O)[C@H](CC(=O)O)NC1=O` [Compound 120], which “Selectivity ELISA” value is on record?
**A.** 19.1

**Q.** `COc1cccc(-c2ccccc2C[C@@H]2NC(=O)[C@@H]3CCCN3[C@H](C(=O)NC(C)(C)C)[C@H](C)NC(=O)[C@H]([C@@H](C)O)NC(=O)[C@H](CC(=O)O)NC(=O)[C@H](CC(C)C)NC(=O)[C@H]3CCCCN3C2=O)c1` [Compound 136] was tested. Which “Selectivity ELISA” value did it give?
**A.** 6.6

**Q.** Which “Selectivity ELISA” value does the source give for `CC(C)C[C@@H]1NC(=O)c2ccc(-c3ccncc3)c(c2)CNC(=O)[C@H](Cc2ccc(O)cc2)NC(=O)[C@@H]2CCCN2[C@H](C(=O)NC(C)(C)C)[C@H](C)NC(=O)[C@H]([C@@H](C)O)NC(=O)[C@H](CC(=O)O)NC1=O` [Compound 337] here?
**A.** 2.9

**Q.** For `CC(C)C[C@@H]1NC(=O)[C@H]2CCCCN2C(=O)[C@H](Cc2cccc3ccccc23)NC(=O)[C@@H]2CCCN2[C@H](C(=O)NC(C)(C)C)[C@H](C)NC(=O)[C@H]([C@@H](C)O)NC(=O)[C@H](CC(=O)O)NC1=O` [Compound 143], which “Selectivity ELISA” value is on record?
**A.** 2.1

**Q.** With `CC(C)C[C@@H]1NC(=O)CN(C)C(=O)[C@H](Cc2cccc3ccccc23)NC(=O)[C@@H]2CCCN2[C@H](C(=O)NC(C)(C)C)[C@H](C)NC(=O)[C@H]([C@@H](C)O)NC(=O)[C@H](CC(=O)O)NC1=O` [Compound 117] as the compound, how does the “Selectivity ELISA” value read?
**A.** 8.7

**Q.** For `CC(C)C[C@@H]1NC(=O)C[C@H](CCCCN)NC(=O)CN(Cc2ccccc2)C(=O)[C@@H]2CCCN2[C@H](C(=O)NC(C)(C)C)[C@H](C)NC(=O)[C@H]([C@@H](C)O)NC(=O)[C@H](CC(=O)O)NC1=O` [Compound 296], which “Selectivity ELISA” value is on record?
**A.** 94.8

**Q.** Which “Selectivity ELISA” value does the source give for `C=CCOc1ccc(C[C@@H]2NC(=O)[C@@H]3CCCN3[C@H](C(=O)NC(C)(C)C)[C@H](C)NC(=O)[C@H]([C@@H](C)O)NC(=O)[C@H](CC(=O)O)NC(=O)[C@H](CC(C)C)NC(=O)CNC2=O)cc1` [Compound 163] here?
**A.** 11.0

**Q.** How did the “Selectivity ELISA” value turn out when `CC(C)C[C@@H]1NC(=O)[C@H](Cc2ccc(O)cc2)NC(=O)[C@@H]2CCCN2[C@H](C(=O)NC(C)(C)C)[C@H](C)NC(=O)[C@H](C(C)(C)S)NC(=O)[C@H](CC(=O)O)NC1=O` [Compound 55] was run?
**A.** 1.1

**Q.** How did the “Selectivity ELISA” value turn out when `CC(C)C[C@@H]1NC(=O)[C@@H]2C[C@@H](O)CN2C(=O)[C@H](Cc2ccc(O)cc2)NC(=O)[C@@H]2CCCN2[C@H](C(=O)NC(C)(C)C)[C@H](C)NC(=O)[C@H]([C@@H](C)O)NC(=O)[C@H](CC(=O)O)NC1=O` [Compound 139] was run?
**A.** 0.7

**Q.** How did the “Selectivity ELISA” value turn out when `CC(C)C[C@@H]1NC(=O)[C@H](CCc2ccccc2)NC(=O)[C@@H]2CCCN2[C@H](C(=O)NC(C)(C)C)[C@H](C)NC(=O)[C@H]([C@@H](C)O)NC(=O)[C@H](CC(=O)O)NC1=O` [Compound 6] was run?
**A.** 1.9

**Q.** How did the “Selectivity ELISA” value turn out when `CC(C)C[C@@H]1NC(=O)C[C@H](CCCCN)NC(=O)[C@H](CC2CCCCC2)NC(=O)[C@@H]2CCCN2[C@H](C(=O)NC(C)(C)C)[C@H](C)NC(=O)[C@H]([C@@H](C)O)NC(=O)[C@H](CC(=O)O)NC1=O` [Compound 210] was run?
**A.** 16.0

**Q.** Which “Selectivity ELISA” value does the source give for `CC(C)C[C@@H]1NC(=O)[C@H]2C[C@H](O)CN2C(=O)[C@H](Cc2cscn2)NC(=O)[C@@H]2CCCN2[C@H](C(=O)NC(C)(C)C)[C@H](C)NC(=O)[C@H]([C@@H](C)O)NC(=O)[C@H](CC(=O)O)NC1=O` [Compound 151] here?
**A.** 4.1

**Q.** Which “Selectivity ELISA” value does the source give for `CC(C)C[C@@H]1NC(=O)CN(C)C(=O)[C@H](Cc2cccc(I)c2)NC(=O)[C@@H]2CCCN2[C@H](C(=O)NC(C)(C)C)[C@H](C)NC(=O)[C@H]([C@@H](C)O)NC(=O)[C@H](CC(=O)O)NC1=O` [Compound 106] here?
**A.** 18.7

**Q.** With `CC(C)C[C@@H]1NC(=O)[C@H]2C[C@H](O)CN2C(=O)[C@H](Cc2ccc(O)cc2)NC(=O)[C@@H]2CCCN2[C@H](C(=O)NC(C)(C)C)[C@H](C)NC(=O)[C@H]([C@@H](C)O)NC(=O)[C@H](CC(=O)O)NC1=O` [Compound 140] as the compound, how does the “Selectivity ELISA” value read?
**A.** 9.6

**Q.** How did the “Selectivity ELISA” value turn out when `CC(C)C[C@@H]1NC(=O)c2ccc(-c3cccc4ncccc34)c(c2)CNC(=O)[C@@H]2CCCN2[C@H](C(=O)NC(C)(C)C)[C@H](C)NC(=O)[C@H]([C@@H](C)O)NC(=O)[C@H](CC(=O)O)NC1=O` [Compound 347] was run?
**A.** 1.3

**Q.** How did the “Selectivity ELISA” value turn out when `CC[C@H](C)[C@@H]1NC(=O)[C@H](CC(=O)O)NC(=O)[C@H](CC(C)C)NC(=O)[C@H](Cc2c[nH]c3ccccc23)NC(=O)[C@@H]2CCCN2[C@H](C(=O)NC(C)(C)C)[C@H](C)NC1=O` [Compound 8] was run?
**A.** 0.9

**Q.** For `CC(C)C[C@@H]1NC(=O)[C@@H](CCCNC(=N)N)N(C)C(=O)[C@H](Cc2ccc(O)cc2)NC(=O)[C@@H]2CCCN2[C@H](C(=O)NC(C)(C)C)[C@H](C)NC(=O)[C@H]([C@@H](C)O)NC(=O)[C@H](CC(=O)O)NC1=O` [Compound 157], which “Selectivity ELISA” value is on record?
**A.** 55.3
